“Also recorded” adds a separate entry of the source.
What was measured:
[1] = test system: HL-60 cell line transfected with Bcl-2; assay: DNA fragmentation assay in Bcl-2-transfected HL-60 cells; format: cell-based, human; conditions: for DNA fragmentation (reversal of Bcl-2 block of apoptosis): 50 μM, 24 hours
[2] = molecular target: T1, Bcl-2 protein (Homo sapiens, UniProt P10415); assay: Bcl-2 competition binding assay (fluorescence polarization, Flu-1193 probe); conditions: for concentration-dependent competition binding: increasing compound concentrations, HA14-1 1 to 100 μM
T1 construct: purified soluble Bcl-2 proteins purchased from Santa Cruz Biotechnology, Inc., Calif; purchased Santa Cruz Biotechnology, Inc
T1 sequence (P10415 1-205 limits assumed): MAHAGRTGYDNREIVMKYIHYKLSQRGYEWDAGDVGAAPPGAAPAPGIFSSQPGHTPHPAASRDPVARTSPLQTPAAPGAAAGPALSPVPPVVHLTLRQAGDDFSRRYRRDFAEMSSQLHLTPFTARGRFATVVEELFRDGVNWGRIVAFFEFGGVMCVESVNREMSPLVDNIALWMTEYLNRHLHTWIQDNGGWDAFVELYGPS

[3] = test system: 697 cells; conditions: positive control; cited from earlier work
[4] = test system: HL-60 neo line; assay: Control apoptosis experiment in HL-60 neo line; format: cell-based, human; conditions: 50 μM
[5] = test system: 697 cells; assay: DNA fragmentation assay in 697 cells; format: cell-based, human; conditions: 50 μM, 48 hours
Description: The Bcl-transfected cells were incubated with Bcl-2 inhibitor test compounds at 50 μM for 24 hours and then examined for apoptosis by the following DNA fragmentation assay. Then the treated cells were washed in PBS, lysed in digestion buffer (100 mM NaCl, 10 mM Tris-Cl, pH8, 25 mM EDTA, pH 8, 0.5% SDS, 0.1 mg/ml proteinase K), and incubated overnight at 50° C. The samples were extracted three times with phenol-chloroform, precipitated with an equal volume isopropanol, and spun down for 15 minutes in a microcentrifuge at room temperature. The DNA precipitate was washed once with 70% ethanol and resuspended in TE buffer containing 200 μg/ml DNase-free RNase A (Boehringer Mannheim, Indianapolis, Ind.). Alter incubation at 37° C. for 30 min., the DNA was loaded into a 2% agarose mini-gel with 2 μg/ml ethidium bromide, and electrophoresis is run at 50 V for 2 hours in 0.5×TBE buffer. The gel was destained with water for 1 hour arid photographed under UV light.
First, the ethidium bromide stain concentration was 1 μg/ml instead of 2 μg/ml. Second, the cells for the assay comprised 697 cells. The 697 line is a human pre-B leukemia line with a t(1; 19) chromosomal translocation (no translocation involving Bcl-2). Bcl-2 is highly expressed in this line. The high expression of Bcl-2 in 697 cells was confirmed by protein immunoblot analysis (data not shown). […] DNA markers were phiX174 DNA with restriction endonuclease Hae III (Boehringer Mannheim, Indianapolis, Ind.). The cells were incubated with test compound at 50 μM concentration or Taxol at 5 μM concentration for 48 hours.

[6] = test system: HL-60 cell line transfected with Bcl-2; conditions: 50 μM etoposide; cited from earlier work
[7] = test system: HL-60 cell line (parent line); conditions: 50 μM etoposide; cited from earlier work

CC(=O)c1cc(C(=O)c2ccccc2)n2ccc(Cc3ccc([N+](=O)[O-])cc3)cc12 [HA13]
DNA fragmentation (reversal of Bcl-2 block of apoptosis) [1]: DNA fragmentation is apparent

CCOC(=O)C1=C(N)Oc2ccc(Br)cc2C1C(C#N)C(=O)OCC (stereo not shown) [HA14-1, ETHYL 2-AMINO-6- BROMO-4-(1-CYANO-2- ETHOXY-2-OXOETHYL)- 4H-CHROMENE-3- CARBOXYLATE]
DNA fragmentation after fluoromethyl ketone pretreatment ([1]; 100 μM fluoromethyl ketone 2 hours, then 50 μM HA14-1 24 hours): neutralize the action of HA14-1 | concentration-dependent competition binding [2]: clear concentration-dependent competition binding was observed

CC(=O)O[C@H]1C(=O)[C@@]2(C)[C@H]([C@H](OC(=O)c3ccccc3)[C@]3(O)C[C@H](OC(=O)[C@H](O)[C@@H](NC(=O)c4ccccc4)c4ccccc4)C(C)=C1C3(C)C)[C@]1(OC(C)=O)CO[C@@H]1C[C@@H]2O [Taxol]
apoptosis induction in 697 cells (known) [3]: known to induce apoptosis in 697 cells

O=C1Nc2ccccc2/C1=C/c1ccc[nH]1 [HA12-16]
apoptosis induction in cells not regulated by Bcl-2 [4]: lack of effect in inducing apoptosis | DNA fragmentation / apoptosis induction ([5]; listed as HA01): induced DNA fragmentation to various extents; also recorded: induced apoptosis in the 697 cells

O=C1c2ccccc2SC(c2ccccc2)C1CN1CCN(C(C(=O)O)C(=O)O)CC1 (stereo not shown) [HA03]
concentration-dependent competition binding [2]: clear concentration-dependent competition binding was observed

Nc1nc(N)c2c(Oc3ccccc3)cccc2n1 [HA04]
concentration-dependent competition binding [2]: clear concentration-dependent competition binding was observed | DNA fragmentation / apoptosis induction [5]: induced DNA fragmentation to various extents

COC1OC2COC(c3ccccc3)O[C@H]2[C@@H](OC(C)=O)[C@H]1OS(=O)(=O)c1ccccc1 (stereo partly shown) [HA14]
DNA fragmentation (reversal of Bcl-2 block of apoptosis) [1]: DNA fragmentation is apparent

COc1cc(C2c3cc4c(cc3OC(N3CCOCC3)C2C)OCO4)cc(OC)c1O (stereo not shown) [HA11-57, 2,6-DI-MEO-4-(7-ME-6-MORPHOLIN-4-YL-6H- [1,3]DIOXOLO[4,5-G]CHROMEN-8-YL)-PHENOL]
DNA fragmentation (reversal of Bcl-2 block of apoptosis) [1]: DNA fragmentation is apparent

COc1ccc(CCNC(=O)c2sc3c([N+](=O)[O-])cc(C(F)(F)F)cc3[n+]2[O-])cc1OC [HA02]
concentration-dependent competition binding [2]: clear concentration-dependent competition binding was observed | Kd ([2]; read-out: binding affinity (KD)): 15 µM | DNA fragmentation / apoptosis induction [5]: induced DNA fragmentation to various extents

COc1cc([C@@H]2c3cc4c(cc3[C@@H](O[C@@H]3O[C@@H]5CO[C@@H](C)O[C@H]5[C@H](O)[C@H]3O)[C@H]3COC(=O)[C@H]23)OCO4)cc(OC)c1O [etoposide]
sensitivity of Bcl-2-transfected cells to apoptosis-inducing drug [6]: resistant | sensitivity of cells to apoptosis-inducing drug [7]: sensitive

Source: US6492389B1, “Small molecule inhibitors of BCL-2 proteins” (Thomas Jefferson University, priority 1998, dated 2002)
